From patent US20230115274A1, “COMPOUNDS AND COMPOSITIONS FOR TREATING CONDITIONS ASSOCIATED WITH STING ACTIVITY” (IFM Due, Inc., priority 2019, published 2023) come the findings set out here.

Structures are written as SMILES.

T1 sequence (Q86WV6 whole entry R71H/G230A/H232R/R293Q): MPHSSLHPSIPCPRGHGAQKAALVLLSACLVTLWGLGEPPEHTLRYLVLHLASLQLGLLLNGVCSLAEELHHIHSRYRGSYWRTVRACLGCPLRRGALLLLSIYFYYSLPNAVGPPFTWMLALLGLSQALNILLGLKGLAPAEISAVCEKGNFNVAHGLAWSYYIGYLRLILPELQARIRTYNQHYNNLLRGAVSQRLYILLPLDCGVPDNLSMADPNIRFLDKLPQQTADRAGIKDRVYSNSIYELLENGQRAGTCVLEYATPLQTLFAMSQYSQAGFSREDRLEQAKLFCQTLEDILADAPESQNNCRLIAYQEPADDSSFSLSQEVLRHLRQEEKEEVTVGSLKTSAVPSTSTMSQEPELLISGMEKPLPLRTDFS

The first experiment addresses T1, hSTING (Homo sapiens, UniProt Q86WV6, G230A/H232R/R293Q/R71H).
T1 construct: host or cells: THP1-Dual KO-IFNAR2 cells
As to the kind of experiment: STING reporter assay (luciferase) in THP1-Dual KO-IFNAR2 cells stimulated with 2′3′cGAMP. The class given is cell-based. The conditions noted are these: 2′3′cGAMP 15 μM, 24 h, class symbols. The procedure, abridged:
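THP1-Dual KO-IFNAR2 cells (2×10E6 cells/mL) were treated with compound at 0.0017-100 μM final plus 15 μM final 2′3′cGAMP delivered with Lipofectamine 2000. After 24 h at 37° C., secreted luciferase in supernatant was read by QUANTI-Luc luminescence and EC50 values were fitted.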
A general note: A reporter such as luciferase makes a cellular process visible.
`O=C(Nc1cnc(N2CCC3(CC2)CCC(F)(F)CO3)c(Cl)c1)Nc1c[nH]c2cccnc12` [Compound 207, 1-(5-chloro-6-(3,3-difluoro-1-oxa-9-azaspiro[5.5]undecan-9-yl)pyridin-3-yl)-3-(1H-pyrrolo[3,2-b]pyridin-3-yl)urea] gave an EC50 of 5000 to 100000 nM.

In turn, `O=C(Nc1cnc(N2CCC(F)(F)CC2)c(Cl)c1)Nc1c[nH]c2ccc(OCC(F)(F)F)nc12` [Compound 208, 1-(5-chloro-6-(4,4-difluoropiperidin-1-yl)pyridin-3-yl)-3-(5-(2,2,2-trifluoroethoxy)-1H-pyrrolo[3,2-b]pyridin-3-yl)urea] came in with an EC50 of 200 to 1000 nM.

`COCCOc1ccc2[nH]cc(NC(=O)Nc3cnc(C4CCC(F)(F)CC4)c(F)c3)c2n1` [Compound 210, 1-(6-(4,4-difluorocyclohexyl)-5-fluoropyridin-3-yl)-3-(5-(2-methoxyethoxy)-1H-pyrrolo[3,2-b]pyridin-3-yl)urea] returned an EC50 of 200 to 1000 nM.

Consider `COCCOc1ccc2[nH]cc(NC(=O)Nc3cnc(C4CCC(F)(F)CC4)c(Cl)c3)c2n1` [Compound 211, 1-(5-chloro-6-(4,4-difluorocyclohexyl)pyridin-3-yl)-3-(5-(2-methoxyethoxy)-1H-pyrrolo[3,2-b]pyridin-3-yl)urea], for which the EC50 fell in the range of 200 to 1000 nM.

The molecule `COCCOc1ccc2[nH]cc(NC(=O)Nc3ccc(C4CCC(F)(F)CC4)nc3)c2n1` [Compound 212, 1-(6-(4,4-difluorocyclohexyl)pyridin-3-yl)-3-(5-(2-methoxyethoxy)-1H-pyrrolo[3,2-b]pyridin-3-yl)urea] displayed an EC50 of 1000 to 5000 nM.

Turning to `COc1ccc2[nH]cc(NC(=O)Nc3ccc(C4CCC(F)(F)CC4)nc3)c2n1` [Compound 213, 1-(6-(4,4-difluorocyclohexyl)pyridin-3-yl)-3-(5-methoxy-1H-pyrrolo[3,2-b]pyridin-3-yl)urea], the EC50 lay in the range of 200 to 1000 nM.

Molecule `O=C(Nc1cnc(Cl)c(C2CCC(F)(F)CC2)c1)Nc1c[nH]c2cccnc12` [Compound 214, 1-(6-chloro-5-(4,4-difluorocyclohexyl)pyridin-3-yl)-3-(1H-pyrrolo[3,2-b]pyridin-3-yl)urea] displayed an EC50 of 5000 to 100000 nM.

In the case of `O=C(Nc1cnc(N2CCC3(CCCCO3)CC2)c(Cl)c1)Nc1c[nH]c2cccnc12` [Compound 215, 1-(5-chloro-6-(1-oxa-9-azaspiro[5.5]undecan-9-yl)pyridin-3-yl)-3-(1H-pyrrolo[3,2-b]pyridin-3-yl)urea], the EC50 lay within 1000 to 5000 nM.

As to `O=C(Nc1cnc(C2CCN(CC(F)(F)F)C2)c(Cl)c1)Nc1c[nH]c2cccnc12` (stereo not shown) [Compound 216, 1-(5-chloro-6-(1-(2,2,2-trifluoroethyl)pyrrolidin-3-yl)pyridin-3-yl)-3-(1H-pyrrolo[3,2-b]pyridin-3-yl)urea], the EC50 was in the range of 1000 to 5000 nM.

As for `O=C(Nc1cc(Cl)nc(C2CCC(F)(F)CC2)c1)Nc1c[nH]c2cccnc12` [Compound 217, 1-(2-chloro-6-(4,4-difluorocyclohexyl)pyridin-4-yl)-3-(1H-pyrrolo[3,2-b]pyridin-3-yl)urea], the EC50 lay in the range of 1000 to 5000 nM.

`COCCOc1ccc2[nH]cc(NC(=O)Nc3cnc(N4CCC(F)(F)CC4)c(Cl)c3)c2n1` [Compound 218, 1-(5-chloro-6-(4,4-difluoropiperidin-1-yl)pyridin-3-yl)-3-(5-(2-methoxyethoxy)-1H-pyrrolo[3,2-b]pyridin-3-yl)urea] had an EC50 of 200 to 1000 nM.

Staying with this experiment, now noted: 2′3′cGAMP 15 μM, 24 h, numeric bounds.
`O=C(Nc1cnn(CC2CCC(F)(F)CC2)c1)Nc1c[nH]c2cccnc12` [Compound 206, 1-(1-((4,4-difluorocyclohexyl)methyl)-1H-pyrazol-4-yl)-3-(1H-pyrrolo[3,2-b]pyridin-3-yl)urea] yielded an EC50 of more than 30000 nM.

`COc1ccc2[nH]cc(NC(=O)Nc3cnn(C4CCC(F)(F)CC4)c3)c2n1` [Compound 209, 1-(1-(4,4-difluorocyclohexyl)-1H-pyrazol-4-yl)-3-(5-methoxy-1H-pyrrolo[3,2-b]pyridin-3-yl)urea] displayed an EC50 of more than 30000 nM.

The EC50 is the midpoint of the concentration-response curve.
